In PMC11803819, “Chemical composition, antioxidant activities, and enzyme inhibitory effects of Lespedeza bicolour Turcz. essential oil” (Journal of Enzyme Inhibition and Medicinal Chemistry, 2025):
In brackets after ≈: the same amount, converted by molar mass.

Legend:
[1] = test system: acetylcholinesterase (AChE); conditions: previous studies; cited from earlier work
[2] = DPPH radical scavenging assay; conditions: positive control
Method: The experimental procedure was adapted from previous research with minor modifications. The concentrations of Trolox (positive control) and the mother solution of the essential oil EO were 1.0 mg/mL and 20 mg/mL, respectively, in an ethanolic system. 50 μL of the positive control or EO solution was pipetted into a 96‐well microplate and 200 μL of a 2,2-diphenyl-1-picrylhydrazyl (DPPH) solution. The microplate was incubated in the dark at 25 °C for 30 min, and then the absorbance was measured at 517 nm using an Epoch microplate absorbance spectrophotometer (Epoch, Biotech company, Minneapolis, MN, USA). The DPPH radical scavenging capacity (RSC%) was calculated using the Equation (2). […] (2) RSC%=(1−ASample−ASample Blank/AControl)×100% where, ASample is the absorbance of the tested sample at different concentrations, AControl is the absorbance of the control (ethanolic DPPH solution), and ASample Blank is the absorbance of the ethanol sample without DPPH.

[3] = ABTS radical scavenging assay; conditions: positive control
Method: The experimental procedure is derived from the previous methods with some modifications[35]^,[36]. A mixture of 7.0 mM 2,2-azinobis(3-ethylbenzothiazoline-6-sulfonate) (ABTS) solution and 2.6 mM potassium persulfate was prepared to generate the ABTS^•+ free radical. The mixture was subsequently stored in the dark at room temperature for 12 h, facilitating the entire generation of the ABTS^•+ free radical. Additionally, ethanolic EO solutions were prepared at 50, 25, 10, 5, 2.5, and 1 mg/mL concentrations. A microplate reader (Epoch, Biotech company, Minneapolis, MN, USA) was utilised to ascertain the absorbance of the solution, delineated as the absorbance at 734 nm six minutes post-initiation of the reaction. For comparison, ethanol was used as the blank and gradient-diluted solvent. Meanwhile, 0.5 mg/mL 6‐hydroxy‐2,5,7,8‐tetramethylchroman‐2‐carboxylic acid (Trolox) was utilised as the positive control. The ABTS radical scavenging capacity (RSC%) was calculated using the Equation (1). (1) RSC%=A0−A/A0×100% where A0 and A are the absorbance of 200 μL diluted ABTS^•+ solution mixed with 50 μL ethanol and 50 μL sample solution, respectively, at 734 nm. IC50 was then calculated. All tests were performed in triplicates.

β-lactamase = conditions: cited from earlier work

acetylcholinesterase (AChE), sequence (P22303 32-614, species assumed): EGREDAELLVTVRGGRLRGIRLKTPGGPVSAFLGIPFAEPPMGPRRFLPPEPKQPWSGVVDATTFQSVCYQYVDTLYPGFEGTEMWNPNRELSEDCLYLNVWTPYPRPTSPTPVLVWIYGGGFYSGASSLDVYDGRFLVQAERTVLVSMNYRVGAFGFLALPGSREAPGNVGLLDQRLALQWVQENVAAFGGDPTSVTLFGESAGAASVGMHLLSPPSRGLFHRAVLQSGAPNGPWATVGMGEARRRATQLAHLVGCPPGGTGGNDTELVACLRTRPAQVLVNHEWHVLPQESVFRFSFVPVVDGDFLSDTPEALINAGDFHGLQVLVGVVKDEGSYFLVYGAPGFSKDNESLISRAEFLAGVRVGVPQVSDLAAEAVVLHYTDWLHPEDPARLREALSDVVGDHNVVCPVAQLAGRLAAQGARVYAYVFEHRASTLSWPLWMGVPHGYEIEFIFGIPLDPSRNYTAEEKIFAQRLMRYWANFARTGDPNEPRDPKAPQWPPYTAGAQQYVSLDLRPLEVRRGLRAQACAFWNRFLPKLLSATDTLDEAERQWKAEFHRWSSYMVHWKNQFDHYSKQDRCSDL

For `C=C[C@](C)(O)CC[C@@H]1[C@@]2(C)CCCC(C)(C)[C@@H]2CC[C@@]1(C)O` [Sclareol], the “Inhibition against AChE” value [1] is given as “significant inhibition”.
With `Cc1c(C)c2c(c(C)c1O)CCC(C)(C(=O)O)O2` (stereo not shown) [Trolox, 6‐hydroxy‐2,5,7,8‐tetramethylchroman‐2‐carboxylic acid] the “IC50 of DPPH scavenging capacity” value [2] was 9.94 ± 0.20 µg/mL and the “IC50 of ABTS radical scavenging capacity” value [3] was 6.15 ± 0.15 µg/mL.
In the case of `COC(=O)C=Cc1ccccc1` [methyl cinnamate], the IC50 (β-lactamase) is listed as 11.6 µg/mL (≈ 71.5 µM).
